Key:
small intestinal injury [1] = details: Non-Patent Literature 1 (Wallace et al., Gastroenterology 2011); cited from earlier work
small intestinal injury [2] = details: rat, in vivo
Method: (§1) The animals were allowed to free access to a solid diet (CE-2, CLEA Japan, Inc.) and tap water.
(§2) At the start of the experiments, the blood was collected from the tail vein with hematocrit capillary tubes (Thermo Fisher Scientific K.K.) to measure hematocrit values. […] After grouping, the body weight of the animals was measured for nine days, and one of the PPIs (10 mg/kg) was intraperitoneally administered twice a day. For the normal group and the NSAID alone administration groups, vehicle was administered instead of the PPIs. From day 6 of PPI administration, one of the NSAIDs (10 mg/kg) was administered by oral gavage twice a day. For the normal group, vehicle was administered instead of the NSAIDs. For the bifidobacteria administration groups, one strain of the bacteria (1×10^9 cfu (colony forming unit)/animal) was further administered by oral gavage once a day. For the other groups, physiological saline was administered instead of the bifidobacteria. On the final day of the experiments, the hematocrit values were measured again, and the difference between the start and the end of the experiments was calculated and expressed as the rate of change of the hematocrit values. In aspirin administration experiments, the animals were fed with a high-fructose diet (EPS EKISHIN Co., Ltd) from the starting day of PPI administration.
(§3) Bifidobacteria administration was not performed. […]

small intestinal injury [3] = test: Comparative Example 1: degree of small intestinal injury induction by sulindac and omeprazole, rate of change of hematocrit values; details: rats; sulindac as NSAID + omeprazole as PPI; no bifidobacteria; FIG. 10
Method: as §1, §2, §3

[4] = test system: small intestinal injury induced by NSAID and PPI; test: Test 1: inhibitory effects on NSAID and PPI induced small intestinal injury, rate of change of hematocrit values; format: in vivo, Wister male rats; details: rats, bacteria 1×10^9 cfu/animal oral once a day
Method: Frozen stocks of the following bacterial strains were statically cultured in GAM broth at 37° C. for 24 hours: the Bifidobacterium bifidum G9-1 strain (B. bifidum G9-1) (Accession No. NITE BP-817), the Bifidobacterium longum reference strain JCM (registered trademark) 1217^T (B. longum JCM 1217) (purchased from Japan Collection of Microorganisms (JCM), RIKEN BioResource Research Center), and the Bifidobacterium infantis reference strain JCM 1222T (B. infantis JCM 1222) (purchased from JCM). Each of the bacterial liquid cultures was inoculated into fresh GAM broth at a ratio (by volume) of liquid culture to GAM broth of 1:100, and statically cultured at 37° C. for 24 hours. […]
Small intestinal injury was induced by a combination of (S)-(+)-2-(6-methoxy-2-naphthyl)propionic acid (naproxen, Tokyo Chemical Industry Co., Ltd., dissolved in a 5% NaHCO3 solution; also called NAP) and omeprazole (omz) or by a combination of ibuprofen (Ibu) and omeprazole (omz). […] That is, the effect of B. bifidum on recovery from small intestinal injury induced by ibuprofen and omeprazole when compared with the effect of B. bifidum on recovery from small intestinal injury induced by naproxen and omeprazole was calculated by the following formula, taking the latter effect as 1.

## COc1ccc2cc([C@H](C)C(=O)O)ccc2c1 [Naproxen, (S)-(+)-2-(6-methoxy-2-naphthyl)propionic acid]
Small intestinal injury [1]
  induction of small intestinal injury by naproxen in combination with omeprazole: induce small intestinal injury

## CC1=C(CC(=O)O)c2cc(F)ccc2/C1=C\c1ccc([S+](C)[O-])cc1 (centres unmarked) [sulindac]
Small intestinal injury [2]
  induction of small intestinal injury by combination of sulindac and omeprazole: does not induce small intestinal injury
Small intestinal injury [3]
  reduction of the hematocrit values induced by sulindac in combination with omeprazole: did not induce reduction of the hematocrit values

## Bifidobacterium longum
[4]; ibuprofen 10 mg/kg oral + lansoprazole 10 mg/kg i.p. twice a day, FIG. 7
  inhibitory effect on small intestinal injury (hematocrit reduction) induced by ibuprofen and lansoprazole: higher inhibitory effect
[4]; ibuprofen 10 mg/kg oral + omeprazole 10 mg/kg i.p. twice a day, FIG. 4
  inhibitory effect on small intestinal injury (hematocrit reduction) induced by ibuprofen and omeprazole: higher inhibitory effect

From patent publication US11219650B2, “Agent for preventing or treating small intestinal injury induced by specific NSAID and PPI” (priority 2018, dated 2022)
